Data on one compound can be found in patent publication US7723021B2, “Methods for treating lentivirus infections” (The J. David Gladstone Institutes, priority 2003, dated 2010).

Entries after “also recorded” stand apart in the source; their conditions may differ. Residues, ends and D or L forms follow the SMILES beside them. *: point of attachment. Cbz = O=C(OCc1ccccc1)*

The assay concerns Vif-induced degradation of polyubiquitylated APOBEC3G. Nature of the assay: 293T cells cotransfected with APOBEC3G-HA, His-ubiquitin and Vif, with MG132, anti-HA immunoblot. The assay is classed as cell-based. Particulars: MG132 for the final 6 hours of culture. The method, then: To obtain further insight into the mechanism of Vif-induced degradation of APOBEC3G, it was investigated whether APOBEC3G is modified by ubiquitylation. APOBEC3G and His-ubiquitin expression vectors (Treier et al., 1994) were cotransfected into 293T cells in the presence or absence of Vif expression vector. After 48 hours in culture, cellular lysates were prepared. […] Immunoblotting of lysates prepared in the absence of APOBEC3G-HA confirmed that anti-HA antibodies selectively reacted with modified forms of APOBEC3G (FIG. 7C, lane 10). Coexpression of Vif was associated with a complete loss of these polyubiquitylated APOBEC3G species as well as diminished expression of unmodified APOBEC3G (FIG. 7C, lanes 6 and 8). To investigate whether the 26S proteasome mediated Vif-induced degradation of these polyubiquitylated APOBEC3G protein species, parallel experiments were performed in the presence of the proteasome inhibitor, MG132. […] However, it was also observed in multiple experiments that one of the many APOBEC3G degradation products appearing in Vif-expressing cells increased after the addition of MG132 (FIG. 7C, compare lanes 7 and 8). These findings raise the possibility that Vif action may involve multiple pathways including the targeting of select proteolytic fragments of APOBEC3G for degradation by the 26S proteasome.
FIG. 7. HIV-1 Vif induces degradation of APOBEC3G, and polyubiquitylated forms of APOBEC3G form a major target for Vif induced degradation. (A and B) Vif promotes degradation or extensive proteolysis of APOBEC3G as reflected by the loss of both N- and C-terminal immunoreactive epitopes. Graded amounts of expression vector DNA encoding HA-APOBEC3G or APOBEC3G-HA were co-transfected with and without Vif expression vector DNA into 293T cells. Cellular lysates prepared from these cultures were analyzed by immunoblotting with anti-HA antibodies. […] Note that Vif expression induces a loss of anti-HA immunoreactivity regardless of whether the HA epitope is positioned at the N- or C-terminus of APOBEC3G. (C) APOBEC3G is polyubiquitylated and Vif induces degradation of (Ub)n-APOBEC3G apparently by a proteasome-independent mechanism. 293T cells were cotransfected with APOBEC3G-HA and his-ubiquitin expression vectors in the presence or absence of Vif expression vector. 48 hours later, cellular lysates were prepared. As indicated, select cultures were supplemented with the proteasome inhibitor, MG132, for the final 6 hours of culture. Lysates were analyzed by immunoblotting with anti-HA antibodies. […] In addition to the polyubiquitylated forms of APOBEC3G-HA, degradation products of APOBEC3G-HA were apparent both in the presence and absence of Vif expression.

Regarding `CC(C)C[C@@H](C=O)NC(=O)[C@H](CC(C)C)NC(=O)[C@H](CC(C)C)NC(=O)OCc1ccccc1` [MG132] (Cbz-Leu-Leu-Leu-aldehyde), the “Vif-dependent disappearance of polyubiquitylated APOBEC3G” value is listed as “did not block; also recorded: not blocked”, the “accumulation of polyubiquitylated proteins within the cells” value is reported as “increased accumulation”, the “levels of unmodified APOBEC3G in the presence of Vif” value is listed as “did not block the Vif-dependent disappearance of polyubiquitylated APOBEC3G or increase levels of the unmodified protein” and the “one of the APOBEC3G degradation products in Vif-expressing cells” value was “increased in quantity”.
